# Measurements from patent US20220133753A1, “COMPOSITIONS AND METHODS USEFUL FOR TREATING DISEASES CHARACTERIZED BY INSUFFICIENT PANTOTHENATE KINASE ACTIVITY” (Comet Therapeutics, Inc., priority 2016, published 2022).
# Experiments:
# HEK293 cells = test: HoPan treatment of mammalian HEK293 cells in combination with CoA or 4′-phosphopantetheine; assay type: cell-based, human; settings: HoPan treated HEK293 cells, compound added to the medium
# Method: HoPan treatment of mammalian HEK293 Cells in combination with CoA and 4′-phosphopantetheine treatment: HEK293 cells were maintained in dMEM (Invitrogen) supplemented with 10% fetal calf serum (Gibco) and antibiotics (penicillin/streptomycin, Invitrogen). For HoPan treatment, cells were cultured in custom made dMEM without vitamin B5 (Thermo Scientific) supplemented with dialyzed FCS (Thermo Scientific). CoA or PPanSH was added to HEK293 cells for the final concentration of 25 uM, either in the presence or absence of HoPan (0.5 mM) for 4 days, followed by analysis for phenotype and rescue efficiency of CoA and PPanSH.
# Western blot analysis and Antibodies: For Western blot analysis, cells were collected and washed with phosphate buffer saline (PBS), followed by centrifugation. The cells were lysed and sonicated in 1X Laemmli Sample Buffer and boiled for 5 min with 5% β-mercaptoethanol (Sigma). Protein content was determined using DC protein assay (BioRad). Equal amounts of protein were loaded on a 10 or 12.5% SDS-PAGE gel, transferred onto PVDF membranes and blocked with 5% milk in PBS/0.1% Tween, followed by overnight incubation with primary antibodies. The primary antibodies used were: rabbit-anti dPANK/fbl, 1:4000 Eurogentec custom made as described previously5, mouse anti-tubulin (Sigma Aldrich Cat no: T5168, 1:5000), anti-acetyl-Histone3 (Active Motif Cat no: 39139, 1:2000), anti GAPDH (Fitzgerald Cat no: 10R-G109a, 1:10000), rabbit anti COASY (Abcam Cat no: AB129012, 1:1000). Appropriate HRP-conjugated secondary antibodies (Amersham) were used and detection was performed using enhanced chemi-luminescence (Pierce cat nog: 32106) and Amersham hyperfilm (GE Healthcare). Band intensities were quantified with Image-studio software.
# [1] = test system: dPANK/fbl RNAi treated Drosophila S2 cells; test: dPANK/fbl RNA interference in Drosophila S2 cells, rescue by CoA or 4′-phosphopantetheine; assay type: cell-based; settings: compound added to the medium; for histone (protein) acetylation of dPANK/fbl RNAi treated S2 cells: immunofluorescence
# Method: Drosophila S2 Cell Culture, RNA Interference, and CoA and 4′-phosphopantetheine treatment: Drosophila Schneider's S2 cells were maintained at 25° C. in Schneider's Drosophila medium (Invitrogen) supplemented with 10% heat inactivated fetal calf serum (Gibco) and antibiotics (penicillin/streptomycin, Invitrogen) under laboratory conditions. Synthesis of RNAi constructs and RNA interference (dsRNA) treatment was carried out as described previously (Siudeja K et al, EMBO Mol Med 3, 755-766 (2011)). Non-relevant (human gene; hMAZ) dsRNA was used as control. The cells were incubated for 4 days to induce an efficient knock-down. Cells were then subcultured, with or without CoA (Sigma-Aldrich, Cat. No: C4780—which is used for all the experiments wherever stated below) or 4′-phosphopantetheine (PPanSH) at different concentrations and were maintained for additional 3 days until analysis for rescue efficiency of the compounds was performed. The stock solutions of compounds were made in sterile water and stored in −20° C. until use.
# (§1) Drosophila S2 Cell Immunofluorescence Staining: For immunofluorescence Drosophila S2 cells were seeded on Poly-L-Lysine coated (Sigma-Aldrich) glass microscope slides and allowed to settle for 45 min. Cells were fixed with 3.7% formaldehyde (Sigma Aldrich) for 20 min, washed briefly with PBS+0.1% Triton-X-100 (Sigma Aldrich) and permeabilized with PBS+0.2% Triton-X-100 for 20 min. The slides were incubated in primary antibody (rabbit anti-AcLys, Cell Signaling Cat No: 9441, 1:500) to visualize histone acetylation levels in PBS+0.1% Triton-X-100 overnight and after an additional washing step in PBS+0.1% Triton-X-100 they were incubated in secondary goat anti-rabbit-Alexa488 antibody (Molecular Probes) for two hours at room temperature (RT). F-actin was detected with Rhodamin-Phalloidin (20 U/ml)(Invitrogen) and DNA by staining with DAPI (0.2 ug/ml) (Thermo Scientific). Finally the samples were mounted in 80% glycerol and analyzed using a Leica fluorescence microscope with Leica software. Adobe Photoshop and Illustrator (Adobe Systems Incorporated, San Jose, Calif., USA) were used for image assembly.
# [2] = Stability of CoA in PBS, medium and fetal calf serum by HPLC; settings: formed from CoA in serum, time course of 6 hours
# Method: HPLC sample preparation protocol for total CoA and 4′-phosphopantetheine measurement: Samples were briefly washed with ice-cold PBS solution. Samples were sonicated thoroughly in 100 μl ice-cold PBS and centrifuged for 10-15 min at 4° C. to collect supernatant. Tris(2-carboxyethyl)phosphine hydrochloride (Sigma) (50 mM; 10 ul) was added to 50 μl sample supernatant and were incubated at room temperature for 15 min after vortex-mixing. Saturated ammonium sulfate solution or Millipore 3KD centrifugal filter units were used to remove proteins. The samples were centrifuged at 14,000 rpm for 15 min at 4° C. The clear supernatant (50 ul) or the filtrate was derivatized with 45 ul of ammonium 7-flurobenzo-2-oxa-1,3-doazole-4-sulfonate (SBD-F, Sigma) (1 mg/ml in borax buffer—0.1M containing 1 mM EDTA disodium, pH 9.5), and 5 ul ammonia solution (12.5% v/v, Merck Millipore) at 60° C. for 1 h. The derivatized samples were placed in a refrigerated autosampler (10° C.) in the Shimadzu HPLC system, and injected for total CoA and PPanSH analysis using optimized chromatographic separation conditions combined with fluorescence detection (described below).
# Chromatography separation condition: Chromatographic analysis was performed with a Shimadzu LC-10AC liquid chromatograph, SCL-10A system controller, SIL-10AC automatic sample injector and LC-10AT solvent delivery system. Shimadzu RF-20Axs fluorescence detector was used for derivatized sample extract analysis. The fluorescence detector was set at excitation and emission wavelengths of 385 nm and 515 nm, respectively. Signal output was collected digitally with Shimadzu Labsolution software and post run analysis was performed. […] The two mobile phases consisted of A: 100 mM ammonium acetate buffer (pH 4.5) and B: acetonitrile. Flow rate was maintained at 0.8 ml/min with a slow gradient elution: 0% B till 7 min, 20% B at 20 min, 20% B at 22 min, 50% B at 23 min, maintained at 50% B till 27 min, 0% B at 28 min and 7-10 min for column re-equilibration.
# The stability of CoA in PBS, serum-free medium, medium containing fetal calf (FCS) serum and in fetal calf serum was measured.
# Drosophila S2 cells = test: HoPan treatment of Drosophila S2 cells in combination with CoA or 4′-phosphopantetheine; assay type: cell-based; settings: HoPan treated S2 cells
# Method: HoPan treatment of Drosophila S2 Cell in combination with CoA or 4′-phosphopantetheine treatment: Drosophila Schneider's S2 cells were maintained at standard conditions as explained above. Cells in the exponential phase of growth were used for all the experiments. Different indicated concentrations of CoA or 4′-phosphopantetheine (deuterium labelled PPanSH(D4) or unlabeled PPanSH) were added to S2 cells either in the presence or absence of 0.5 mM HoPan (Zhou Fang Pharm Chemical, China) for 48 h. Similarly, Drosophila S2 cells were treated with different concentrations of PPanSH(D4) at either 25° C. or 4° C. and cells were then harvested at various time points to access transport of PPanSH(D4). Stable isotope labelled PPanSH containing 4 deuterium atoms was purchased from Syncom (Groningen, The Netherlands) as a sodium salt (chemical structure is provided in FIG. 13A). As a read out cell count, intracellular total CoA and PPanSH levels (both labelled and unlabeled levels wherever appropriate) and histone acetylation levels were analyzed as explained below.
# as §1
# [3] = test system: primary human fibroblasts from healthy controls, MCAD deficiency and PA deficiency patients; test: Mitochondrial stress test (Seahorse), basal OCR of primary fibroblasts; assay type: cell-based; settings: 24 h treatment
# Description: A study was thus performed to test the ability of S-acetyl-(S)-4′-phosphopantetheine to facilitate increased basal oxidative respiration in primary fibroblast cultures from patients diagnosed with MCAD deficiency and PA deficiency. Impaired metabolism were observed through functional measurements of respiration using a Seahorse XF Analyzer, where oxygen consumption rate (OCR) reflects oxidative respiration.
# Patient derived cell lines were subject to a mitochondrial stress test according to standard protocol with a cell seeding density of 30 k cells/well (n=2) in glucose free media. After incubation with various concentrations of S-acetyl-4′-phosphopantetheine or vehicle for 24 h, rescue potential was assessed by increase in basal OCR (average of six readings between 30-70 min), relative to control: basal OCR from vehicle treatment was set to 1.0. […] Experiment was performed in two replicates: systematically outlying values caused by seeding errors, port failures, or values within background were excluded from analysis.
# [4] = test system: RNAi knock-down of CG7461 drosophila; test: Drosophila model of VLCAD deficiency, survival in starvation; assay type: in vivo; settings: 5 mM, fed for 24 h
# Description: (§2) The drosophila gene CG7461 is considered to be a good ortholog of ACADVL, as determined by Fly DIOPT (DRSC Integrative Ortholog Prediction Tool). RNAi approaches are an established method of modelling various diseases, and the GD stock library at the Vienna Drosophila Resource Centre (VDRC) contains a knock-down strain for CG7461 (VDRC ID 28028). Down-regulation of CG7461 by RNAi, results in reduced viability when metabolically challenged with starvation.
# Five virgin females from Act5C-GAL4 (RNAi expression driver line) and ten virgin males from UAS-GD 28028 (RNAi knock-down of CG7461) were crossed, to generate mutant progeny. In a similar manner, control flies were generated for the RNAi driver line (Gal4 control: Act5C-GAL4×GD 60000) and the upstream activating sequence (UAS control: UAS-GD 28028×Iso 31). From their offspring, 3-day old adult flies were allowed to feed for 24 h on glucose with and without 5 mM (S)-acetyl-4′-phosphopantetheine, then incubated on 2% agar medium without media. Dead flies were counted every 6 hours (up 90 hours) to obtain % survival over time. Rescue potential was assessed by the ability to survive in starvation conditions, expressed as the area under the curve (calculated by trapezium rule) of the cumulative frequency, relative to each control strain.
# [5] = test system: CG34404 down-regulated drosophila; assay type: in vivo
# Description: as §2, with “CG34404” for “CG7461”, “both MCCC1 and MCCC2,” for “ACADVL,”, “KK” for “GD”, “103335).” for “28028).”, “causes developmental delay.” for “results in reduced viability when metabolically challenged with starvation.”
# Five virgin females from UAS-KK 103335 (RNAi knock-down of CG34404) and ten virgin males from Act5C-GAL4 (heterozygous RNAi expression driver line with CyO balancer) were crossed, and allowed to lay for a period of 24 h in vials containing drosophila media with and without S-acetyl-4′-phosphopantetheine. Rescue potential was assessed by the number of eclosed male mutant or control flies every 6 h, as a percentage of total eclosed flies of each genotype, expressed as the AAUC (calculated by trapezium rule) of the cumulative eclosion relative to the control strain, as shown in FIG. 22A. Further, the region of relative AUCs are plotted in FIG. 22B under treatment conditions.
# [6] = test system: MCAD patient fibroblast cell lines; test: Mitochondrial stress test (Seahorse), reserve capacity of MCAD patient fibroblasts; assay type: cell-based, human; settings: MCAD fibroblasts, relative to vehicle treated control
# Description: Medium-chain acyl-CoA dehydrogenase (MCAD) deficiency is a condition in which the body's capacity to break down fats with medium chain lengths is impaired, caused by mutations in the ACADM gene, which can lead to hypoglycaemia, and liver dysfunction. Left untreated, it can lead to seizures, coma and other serious health problems, with acute symptoms often preceded by extended periods of fasting or an infection with vomiting. Impaired metabolism were observed through functional measurements of respiration using a Seahorse XF Analyzer, where oxygen consumption rate (OCR) reflects oxidative respiration.
# A study was performed to test the Rescue potential of S-acetyl-4′-phosphopantetheine in primary patient fibroblast model of MCAD deficiency. MCAD patient fibroblast cell lines (genotyped as containing homozygous K304E mutations in ACADM) were subject to a mitochondrial stress test according to standard protocol with a cell seeding density of 30 k cells/well (n=2). Rescue potential was assessed by increase in reserve capacity: defined as the difference between basal and maximal OCR, controlled by subtracting values for non-mitochondiral respiration (after rotenone treatment). The study was performed in two replicates.
Molecule,rescue of HoPan-induced impaired histone acetylation (HEK293 cells),rescue of HoPan-induced reduction in cell count (HEK293 cells),intracellular CoA level (HEK293 cells; HPLC),cell count of dPANK/fbl RNAi treated S2 cells [1],histone (protein) acetylation of dPANK/fbl RNAi treated S2 cells [1],histone (protein) acetylation of dPANK/fbl RNAi treated S2 cells ([1]; listed as PpanSH),stability of 4′-phosphopantetheine in serum [2],rescue of HoPan-induced decrease in cell count (Drosophila S2 cells; compound added to the medium),rescue of HoPan-induced histone acetylation defect (Drosophila S2 cells; compound added to the medium),"rescue of HoPan-induced histone acetylation defect (Drosophila S2 cells; compound added to the medium, listed as PpanSH)","intracellular levels of 4′-phosphopantetheine (Drosophila S2 cells; external supplementation, HPLC)",effect on basal OCR in patient fibroblasts compared with healthy controls ([3]; MCAD and PA patient fibroblasts),"basal OCR levels ([3]; primary fibroblasts, relative to vehicle controls)",ability to survive starvation relative to control flies (AUC of cumulative survival) [4],ability to survive starvation relative to control flies (AUC of cumulative survival) ([4]; listed as (S)-acetyl-4′-phosphopantetheine),reduction of the observed developmental delay ([5]; 2 mM in drosophila media) [cumulative fly days],toxicity in drosophila ([5]; in vivo),spare respiratory capacity (reserve capacity) [6]
CC(C)(COP(=O)(O)O)[C@@H](O)C(=O)NCCC(=O)NCCS [4′-phosphopantetheine],rescued,rescued,rescued,rescued,rescued the histone acetylation defect,rescues acetylation defects,stable,rescued,rescued the histone acetylation defect,rescues acetylation defects,significantly increased,–,–,–,–,–,–,–
S-acetyl-4′-phosphopantetheine,–,–,–,–,–,–,–,–,–,–,–,observed more strongly,consistently elevated,partially recovered towards control levels,partially recovered,27,some toxicity,improved spare respiratory capacity
